Measured values from patent publication US7326700B2, “Cyclohexenyl phenyl carboxamides tocolytic oxytocin receptor antagonists” (Wyeth, priority 2001, dated 2008).
pIC50: −log10 of the molar value. Counter-ions that a name gives are not always drawn.

molecular target: T1, human oxytocin receptor (Homo sapiens, UniProt P30559); assay: Oxytocin binding in CHO cell membranes expressing human oxytocin receptors ([3H]oxytocin radioligand binding); settings: 100 nM
T1 construct: host or cells: CHO cells, stably transfected (pcDNA3.1 vector)
T1 sequence (P30559 1-389): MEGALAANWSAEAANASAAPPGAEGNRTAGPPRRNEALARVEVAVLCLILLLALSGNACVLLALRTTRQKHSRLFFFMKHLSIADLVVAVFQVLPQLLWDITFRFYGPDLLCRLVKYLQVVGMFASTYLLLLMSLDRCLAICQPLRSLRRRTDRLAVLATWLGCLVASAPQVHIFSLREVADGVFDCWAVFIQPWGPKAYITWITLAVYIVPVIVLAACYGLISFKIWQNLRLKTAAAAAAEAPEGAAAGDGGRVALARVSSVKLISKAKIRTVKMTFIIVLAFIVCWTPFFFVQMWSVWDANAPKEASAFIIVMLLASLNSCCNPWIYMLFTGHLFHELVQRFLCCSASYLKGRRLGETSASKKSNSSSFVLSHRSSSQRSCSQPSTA
Text: Chinese Hamster Ovary (CHO) cells stably transfected with the human oxytocin recptor (cf. Tanizawa et al., U.S. Pat. No. 5,466,584 (1995) to Rohto Pharmaceutical Co. Ltd., Osaka, Japan) were obtained from M. Thibonnier, Case Western Reserve University School of Medicine, Cleveland, Ohio.
CHO cells transfected with the human oxytocin receptors obtained from M. Thibonnier (pcDNA3.1 vector) are allowed to grow to confluency (approx. >90%) in T-150 flasks under sterile conditions, in a cell culture medium consisting of F-12 Nutrient Mixture (HAM) with L-glutamine (Gibco Cat. #11765-054) containing 15 mM HEPES (Gibco Cat. #15630-080), 1% antibiotic/antimycotic (add 5 mL 1 00×, Gibco Cat. #15240-062 per 500 mL F-12), 400 μg/mL of Geneticin (add 4 mL of 50 mg/mL per 500 mL F-12) and 10% Fetal Bovine Serum (Qualified, heat inactivated, Gibco Cat. #16140-063). The medium is removed by aspiration and the cells are washed with 10 mL of Hank's Balanced Salt solution (Gibco Cat. #14175-095). The salt solution is removed by aspiration and the cells trypsinized with 5 mL of trypsin-EDTA (0.05% trypsin, 0.53 mM EDTA-4Na, Gibco Cat. #25300-070) for 1 min The trypsin is removed by aspiration and the cells dislodged by tapping. Cell Culture medium (e.g. 30 mL for 1:30 split) is immediately added and mixed well to inactivate trypsin. 1 mL of detached cells is added to new culture flasks containing fresh Cell Culture medium (e.g. into 25 mL per T-150 flask), and mixed gently. The cells are incubated at 37° C. in 5% CO2. The medium is changed at 3 to 4 days interval (or as appropriate). The cells grow to confluency (approx. >75%-95%) within 7-8 days. All steps are done under sterile conditions.
The cells are washed twice gently with Hank's Balanced Salt solution (eg, use 10 mL per T-150 flask). The excess solution is removed and the cells bathed for 15-30 min. in an enzyme-free Cell Dissociation Buffer (eg, use 8 mL Hank's Based, Gibco Cat. #13150-016 per T-150 flask) until cells are loosened. The contents are transferred to centrifuge tubes (50 mL size) kept in ice bath. All subsequent steps are done at 4° C. The tubes are centrifuged at 300×g for 15 min (1380 rpm on SORVAL, Model RT6000D, using rotor for 50 mL tubes). The supernatant is discarded and the cells suspended in homogenizing buffer (10 mM Tris-HCl containing 0.25 M sucrose and 1 mM EDTA, pH 7.4) ensuring that the volume of the buffer is about ten times the volume of the cell pellet. The cells are pooled into a centrifuge tube (50 mL) and homogenized with a Polytron at setting 6 for 10 sec. The homogenate is transferred into a Potter-Elvjehm homogenizer and homogenized with 3 strokes. The homogenate is centrifuged at 1500×g for 10 min at 4° C. (3100 rpm using SORVAL, model RT6000D, using rotor for 50 mL tubes). The pellet is discarded. The supernatant is centrifuged at 100,000×g for 60 min. at 4° C. (Beckman L8-80M ultracentrifuge; spin at 37,500 rpm with rotor type 70 Ti for 50 mL tubes; 38,000 rpm with type 80 Ti for 15 mL tubes; or 35,800 rpm with rotor type 45Ti). The supernantant is discarded and the pellet suspended in 3 to 4 mL of Tris buffer (50 mM TRIS-HCl, pH 7.4). The protein content is estimated by the Bradford or Lowry method. The volume of the membrane suspension is adjusted with the membrane buffer (50 mM Tris-HCl containing 0.1% BSA and 0.1 mM PMSF) to give 3.0 mg/mL (or as appropriate) of protein. The membranes are aliquoted and stored at −70° C.
In wells of a 96-well format microtiter plate, is added 90, 110 or 130 μL (to make up a final volume of 200 μL) of assay buffer containing 50 mM of Tris-HCl (pH 7.4), […], 1 mg % aprotinin, 1 mg % leupeptin, 2 mg % 1,10-phenanthroline, 10 mg % trypsin inhibitor, and 0.1 mM PMSF. The inhibitors are added on the day of the experiment. The components are mixed at room temperature, and then kept in ice bath following adjustment of the pH to 7.4. […]

Compound | OT % inhibition @ 100 nM
Cc1cc(C(=O)N2Cc3ccc(C(=O)N(C)CCN(C)C)n3Cc3ccccc32)ccc1C1=CCCCC1 [Example 15, 10-[4-(1-Cyclohex-1-en-1-yl)-3-methylbenzoyl]-N-[2-(dimethylamino)ethyl]-N-methyl-10,11-dihydro-5H-pyrrolo[2,1-c][1,4]benzodiazepine-3-carboxamide] | 99%
Cc1cc(C(=O)N2Cc3ccc(C(=O)NCCN4CCCCC4)n3Cc3ccccc32)ccc1C1=CCCCC1 [Example 20, 10-[4-(1-Cyclohex-1-en-1-yl)-3-methylbenzoyl]-N-[2-(1-piperidinyl)ethyl]-10,11-dihydro-5H-pyrrolo[2,1-c][1,4]benzodiazepine-3-carboxamide] | 52%
Cc1cc(C(=O)N2Cc3ccc(C(=O)NCCC4CCCN4C)n3Cc3ccccc32)ccc1C1=CCCCC1 (centres unmarked) [Example 21, 10-[4-(1-Cyclohex-1-en-1-yl)-3-methylbenzoyl]-N-[2-(1-methyl-2-pyrrolidinyl)ethyl]-10,11-dihydro-5H-pyrrolo[2,1-c][1,4]benzodiazepine-3-carboxamide] | 57%
Cc1cc(C(=O)N2Cc3ccc(C(=O)N4CCC(N5CCCC5)CC4)n3Cc3ccccc32)ccc1C1=CCCCC1 [Example 19, {10-[4-(1-Cyclohex-1-en-1-yl)-3-methylbenzoyl]-10,11-dihydro-5H-pyrrolo[2,1c][1,4]benzodiazepin-3-yl}[4-(1-pyrrolidinyl)-1-piperidinyl]methanone] | 82%
Cc1cc(C(=O)N2Cc3ccc(C(=O)NCCCn4ccnc4)n3Cc3ccccc32)ccc1C1=CCCCC1 [Example 18, 10-[4-(1-Cyclohex-1-en-1-yl)-3-methylbenzoyl]-N-[3-(1H-imidazol-1-yl)propyl]10,11-dihydro-5H-pyrrolo[2,1-c][1,4]benzodiazepine-3-carboxamide] | 41%
Cc1cc(C(=O)N2Cc3ccc(C(=O)N(C)CCCN(C)C)n3Cc3ccccc32)ccc1C1=CCCCC1 [Example 16, 10-[4-(1-Cyclohex-1-en-1-yl)-3-methylbenzoyl]-N-[3-(dimethylamino)propyl]-N-methyl-10,11-dihydro-5H-pyrrolo[2,1-c][1 ,4]benzodiazepine-3-carboxamide] | 99%
Cc1cc(C(=O)N2Cc3ccc(C(=O)N4CC[C@@H](N(C)C)C4)n3Cc3ccccc32)ccc1C1=CCCCC1 [Example 27, {10-[4-(1-Cyclohex-1-en-1-yl)-3-methylbenzoyl]-10,11-dihydro-5H-pyrrolo[2,1-c][1,4]benzodiazepin-3-yl}[(3R)-3-(dimethylamino)pyrrolidinyl]methanone] | 100%
C=CCN1CCN(C(=O)c2ccc3n2Cc2ccccc2N(C(=O)c2ccc(C4=CCCCC4)c(C)c2)C3)CC1 [Example 24, (4-Allyl-1-piperazinyl){10-[4-(1-cyclohex-1-en-1-yl)-3-methylbenzoyl]-10,11-dihydro-5H-pyrrolo[2,1-c][1,4]benzodiazepin-3-yl}methanone] | 68%
Cc1cc(C(=O)N2Cc3ccc(C(=O)N4CCN(C(C)C)CC4)n3Cc3ccccc32)ccc1C1=CCCCC1 [Example 25, {10-[4-(1-Cyclohex-1-en-1-yl)-3-methylbenzoyl]-1 0,11-dihydro-5H-pyrrolo[2,1-c][1,4]benzodiazepin-3-yl}(4-isopropyl-1-piperazinyl)methanone] | 71%
Cc1cc(C(=O)N2Cc3ccc(C(=O)N4CCN(CCN5CCOCC5)CC4)n3Cc3ccccc32)ccc1C1=CCCCC1 [Example 23, {10-[4-(1-Cyclohex-1-en-1-yl)-3-methylbenzoyl]-10,11-dihydro-5H-pyrrolo[2,1-c][1,4]benzodiazepin-3-yl}{4-[2-(4-morpholinyl)ethyl]-1-piperazinyl}methanone] | 79%

same assay, conditions: 100 nM, read-out: OT % inhibition @ 100 nM

Compound | inhibition at 0.1 µM
CC1=C(c2ccc(C(=O)N3Cc4ccc(C(=O)N5CCN(C)CC5)n4Cc4ccccc43)cc2C)CCC[C@H]1O [Example 11, [4-((3R)-3-Hydroxy-2-methyl-cyclohex-1-en-1-yl)-3-methyl-phenyl]-[3-(4-methyl-piperazine-1-carbonyl)-10,11-dihydro-5H-pyrrolo [2,1-c][1,4]benzodiazepin-10-yl]-methanone] | 86%
Cc1cc(C(=O)N2Cc3ccc(C(=O)N4CCN(CCCN(C)C)CC4)n3Cc3ccccc32)ccc1C1=CCCCC1 [Example 5, [10-(4-Cyclohex-1-en-1-yl-3-methyl-benzoyl)-10,11-dihydro-5H-pyrrolo[2,1-c][1,4]benzodiazepin-3-yl]-[4-(3-dimethylamino-propyl)-piperazin-1-yl]-methanone] | 94%

same assay, conditions: value in parentheses, read-out: OT (IC50)

Compound | pIC50
Cc1cc(C(=O)N2Cc3ccc(C(=O)N4CCN(C)CC4)n3Cc3ccccc32)ccc1C1=CCCc2ccccc21 [Example 6, {10-[4-(3,4-Dihydro-naphthalen-1-yl)-3-methyl-benzoyl]-10,11-dihydro-5H-benzo[e]pyrrolo[1,2-a][1,4]diazepin-3-yl}-(4-methyl-piperazin-1-yl)-methanone] | 7.60
Cc1cc(C(=O)N2Cc3ccc(C(=O)N4CCN(C)CC4)n3Cc3ccccc32)ccc1C1=CCCCC1 [Example 4, [10-(4-Cyclohex-1-en-1-yl-3-methyl-benzoyl)-10,11-dihydro-5H-pyrrolo[2,1-c][1,4]benzodiazepin-3-yl]-(4-methyl-piperazin-1-yl)-methanone] | 8.13
COc1cc(C2=CCCCC2)c(Cl)cc1C(=O)N1Cc2ccc(C(=O)N(C)CCCN(C)C)n2Cc2ccccc21 [Example 3, 10-(5-Chloro-4-cyclohex-1-en-1-yl-2-methoxybenzoyl)-N-[3-(dimethylamino)propyl]-N-methyl-10,11-dihydro-5H-pyrrolo[2,1-c][1,4]benzodiazepine-3-carboxamide citric acid salt] | 8.04
COc1cc(C2=CCCCC2)c(Cl)cc1C(=O)N1Cc2ccc(C(=O)N3CCC[C@H]3CN3CCCC3)n2Cc2ccccc21 [Example 1, 4-Chloro-5-cyclohex-1-en-1-yl-2-[(3-{[(2S)-2-(pyrrolidin-1-ylmethyl)pyrrolidin-1-yl]carbonyl}-5H-pyrrolo [2,1-c][1,4]benzodiazepin-10(11H)-yl)carbonyl]phenyl methyl ether] | 8.73
{10-[4-(1-Cyclohexen-1-yl)-3-methylbenzoyl]-10,11-dihydro-5H-pyrrolo[2,1-c][1,4]benzodiazepin-3-yl}(4-methyl-piperazin-1-yl)methanone [Example 12] | 7.49
